Laboratory results taken from patent US11485751B2, “Apramycin derivatives” (WAYNE STATE UNIVERSITY, priority 2017, dated 2022).
Values after ≈ are worked out from the molar mass of the structure shown.

Legend:
AG031 P. aer. APH(3′)-II = assay: Antibacterial activity, clinical isolate AG031; type: cell-based; parameters: unit not given here
In short: (§1)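 Clinical isolates tested by CLSI M07-A10 broth microdilution, with minimal inhibitory concentration as the read-out.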

AG032 P. aer. APH(3′)-II = assay: Antibacterial activity, clinical isolate AG032; type: cell-based; parameters: unit not given here
In short: as §1

[1] = system: AG212, Escherichia coli ATCC25922; assay: MIC reference strain AG212; type: cell-based; conditions: Escherichia coli; reference strain ATCC25922; read-out: MIC AG212 E. coli
In short: (§2)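 Broth microdilution per CLSI standard M07-A10 gave the minimal inhibitory concentrations.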

bacterial ribosomes = assay: in-vitro translation assay, bacterial ribosomes; type: biochemical
In short: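 Inhibitory potency was determined as IC50 in in-vitro translation systems based on bacterial ribosomes, human chimeric (mitochondrial-type) ribosomes or rabbit reticulocyte (cytosolic) ribosomes.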

ATCC19977 M. abcessus = assay: MIC reference strain ATCC19977; type: cell-based; conditions: read-out: MIC ATCC19977 M. abcessus
In short: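 Susceptibility was tested per CLSI aerobic dilution protocol using microbroth format, with the MIC taken as the end point.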

[2] = system: AG225, Acinetobacter baumannii pittii; assay: MIC reference strain AG225; type: cell-based; conditions: Acinetobacter baumannii, reference strain; read-out: MIC AG225 A. baumannii
In short: as §2

[3] = system: clinical isolates carrying APH(3′)-III; assay: MIC broth microdilution, APH(3′)-III; type: cell-based; conditions: IMM Univ. Zurich
AG038 MRSA = assay: Antibacterial activity, clinical isolate AG038; type: cell-based; parameters: unit not given here
In short: as §1

[4] = system: K. pneum. AG269 AAC(3)-II AAC(6′)-I rmtB; assay: Activity against G1405-methylated 16S-rRNA, clinical isolate AG269; type: cell-based
In short: (§3)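 Susceptibility was measured as minimal inhibitory concentration using a standardized broth microdilution protocol (CLSI document M07-A10).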

[5] = system: AG033 P. aer. APH(3′)-II AAC(6′)-I; assay: Antibacterial activity, clinical isolate AG033; type: cell-based; parameters: unit not given here
In short: as §1

AG001 E. coli WT = assay: Antibacterial activity, clinical isolate AG001; type: cell-based; parameters: unit not given here
In short: as §1

[6] = system: Engineered E. coli pH427 rmtF; assay: Activity against G1405-methylated 16S-rRNA, E. coli pH427 rmtF; type: cell-based
In short: as §3

[7] = system: clinical isolates carrying APH(3′)-VI; assay: MIC broth microdilution, APH(3′)-VI; type: cell-based; conditions: IMM Univ. Zurich
[8] = system: Engineered E. coli pH430 WT; assay: Activity, engineered E. coli pH430 WT; type: cell-based; conditions: wild type
In short: as §3

[9] = system: clinical isolates carrying APH(3′)-I; assay: MIC broth microdilution, APH(3′)-I; type: cell-based; conditions: IMM Univ. Zurich
[10] = system: AG039 MRSA AAC(6′)-I ANT(4′)-I; assay: Antibacterial activity, clinical isolate AG039; type: cell-based
In short: as §1

[11] = system: clinical isolates carrying APH(3′)-II; assay: MIC broth microdilution, APH(3′)-II; type: cell-based; conditions: clinical isolates, IMM Univ. Zurich; APH(3′)-II; read-out: MIC APH(3′)-II
[12] = system: human cytosolic ribosomes; assay: in-vitro translation assay, human cytosolic ribosomes; type: biochemical
In short: (§4)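 Translation inhibition is measured in vitro with isolated ribosomes, and IC50 derived. The human cytosolic values actually use rabbit reticulocyte ribosomes, and the mitochondrial values use human chimeric ribosomes.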

AG163 E. coli APH(3′)-I = assay: Antibacterial activity, clinical isolate AG163; type: cell-based
In short: as §1

[13] = system: AG220, Pseudomonas aeruginosa ATCC27853; assay: MIC reference strain AG220; type: cell-based; conditions: Pseudomonas aeruginosa, ATCC27853, reference strain ATCC27853; read-out: MIC AG220 P. aeruginosa
In short: as §2

eukaryotic ribosomes = assay: in-vitro translation assays, bacterial versus eukaryotic ribosomes; type: biochemical
Text: IC50 values for bacterial, human chimeric, and rabbit reticulocyte ribosomes have been determined by in-vitro translation assays as described previously (Proc. Nat. Ac. Sci USA 2012, 109(27):10984-10989).

[14] = system: AG290, Enterobacter cloacae; assay: MIC reference strain AG290; type: cell-based; conditions: Enterobacter cloacae; reference strain; read-out: MIC AG290 E. cloacae
In short: as §2

AG055 E. coli WT = assay: Antibacterial activity, clinical isolate AG055; type: cell-based; parameters: unit not given here
In short: as §1

AG003 E. coli AAC(3)-II = assay: Antibacterial activity, clinical isolate AG003; type: cell-based
In short: as §1

[15] = system: human mitochondrial ribosomes; assay: in-vitro translation assay, human mitochondrial (human chimeric) ribosomes; type: biochemical
In short: as §4

[16] = system: A baum. AG227 APH(3′)-I armA; assay: Activity against G1405-methylated 16S-rRNA, clinical isolate AG227; type: cell-based
In short: as §3

[17] = system: AG042 MRSA AAC(6′)-I ANT(4′)-I APH(2′); assay: Antibacterial activity, clinical isolate AG042; type: cell-based; parameters: unit not given here
In short: as §1

AG173 E. coli AAC(3)-IV = assay: Antibacterial activity, clinical isolate AG173; type: cell-based
In short: as §1

[18] = system: Engineered E. coli pH424 armA; assay: Activity against G1405-methylated 16S-rRNA, E. coli pH424 armA; type: cell-based
In short: as §3

[19] = system: clinical isolates carrying AAC(3)-IV; assay: MIC broth microdilution, AAC(3)-IV; type: cell-based
In short: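 Clinical isolates supplied by the Zurich Institute of Medical Microbiology were tested for MIC (μg/ml) using CLSI M07-A10 broth microdilution.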

[20] = system: Enterob. AG302 AAC(3)-II AAC(6′)-I rmtC; assay: Activity against G1405-methylated 16S-rRNA, clinical isolate AG302; type: cell-based
In short: as §3

[21] = system: Engineered E. coli AG103 armA; assay: Activity against G1405-methylated 16S-rRNA, E. coli AG103 armA; type: cell-based
In short: as §3

[22] = system: AG215, Klebsiella pneumonia; assay: MIC reference strain AG215; type: cell-based; conditions: Klebsiella pneumoniae, reference strain; read-out: MIC AG215 K. pneumonia
In short: as §2

[23] = system: APH(3′, 5″) resistance determinant; assay: Susceptibility to the APH(3′, 5″) resistance determinant; type: cell-based
Text: Minimal inhibitory concentrations (MIC) have been determined by broth microdilution assays (CLSI. Methods for Dilution Antimicrobial Susceptibility Tests for Bacteria That Grow Aerobically; Approved Standard—Tenth Edition. CLSI document M07-A10. Wayne, Pa.: Clinical and Laboratory Standards Institute; 2015.).
The introduction of a formamido group results in compounds that display increased selectivity for the bacterial ribosome over the mitochondrial (wild type and A1555G mutant) ribosomes, predictive of reduced ototoxicity.

[24] = system: Engineered E. coli pH426 rmtC; assay: Activity against G1405-methylated 16S-rRNA, E. coli pH426 rmtC; type: cell-based
In short: as §3

[25] = system: Engineered E. coli pH425 rmtB; assay: Activity against G1405-methylated 16S-rRNA, E. coli pH425 rmtB; type: cell-based
In short: as §3

[26] = system: E. coli AG153 AAC(3)-II APH(3′)-II rmtB; assay: Activity against G1405-methylated 16S-rRNA, clinical isolate AG153; type: cell-based
In short: as §3

SMILES: CNC1C(OC2OC(CO)C(N)C(O)C2O)OC2CC(N)C(OC3C(N)CC(N)C(O)C3OC3OC(CO)C(OCCN)C3O)OC2C1O [DC124, 5-O-β-(3′″-O-(2-Aminoethyl)-D-ribofuranosyl) apramycin]
- Antibacterial activity AG031 P. aer. APH(3′)-II (AG031 P. aer. APH(3′)-II): 32-64
- Antibacterial activity AG032 P. aer. APH(3′)-II (AG032 P. aer. APH(3′)-II): 32-64
- MIC [1]: 2 mg/L
- IC50 (bacterial ribosomes): 0.06 µM
- MIC (ATCC19977 M. abcessus): 8 mg/L (≈ 11.2 µM)
- MIC [2]: 8 mg/L
- MIC [3]: 0.5 mg/L (≈ 0.7 µM)
- Antibacterial activity AG038 MRSA (AG038 MRSA): 8-16
- Activity K. pneum. AG269 AAC(3)-II AAC(6′)-I rmtB [4]: 2
- Antibacterial activity AG033 P. aer. APH(3′)-II AAC(6′)-I [5]: 128
- Antibacterial activity AG001 E. coli WT (AG001 E. coli WT): 8
- Activity E. coli pH427 rmtF [6]: 2
- MIC [7]: 4 mg/L (≈ 5.6 µM)
- Activity E. coli pH430 WT [8]: 2
- MIC [9]: 64 mg/L (≈ 89.5 µM)
- Antibacterial activity AG039 MRSA AAC(6′)-I ANT(4′)-I [10]: 8
- MIC [11]: 2 mg/L (≈ 2.8 µM)
- IC50 [12]: 181 µM
- Antibacterial activity AG163 E. coli APH(3′)-I (AG163 E. coli APH(3′)-I): 4-8
- MIC [13]: 16 to 32 mg/L
- activity against eukaryotic ribosomes (eukaryotic ribosomes): only low activity
- selectivity at the target level (eukaryotic ribosomes; bacterial versus eukaryotic ribosomes): excellent selectivity
- MIC [14]: 1 to 2 mg/L
- Antibacterial activity AG055 E. coli WT (AG055 E. coli WT): 8
- Antibacterial activity AG003 E. coli AAC(3)-II (AG003 E. coli AAC(3)-II): 4-8
- IC50 [15]: 57 µM
- Activity A baum. AG227 APH(3′)-I armA [16]: 16
- Antibacterial activity AG042 MRSA AAC(6′)-I ANT(4′)-I APH(2′) [17]: 8
- Antibacterial activity AG173 E. coli AAC(3)-IV (AG173 E. coli AAC(3)-IV): 4
- Activity E. coli pH424 armA [18]: 1
- activity against the IMM clinical isolates carrying the gene for AAC(3)-IV [19]: excellent antiribosomal and antibacterial activity
- MIC ([19]; clinical isolates, IMM Univ. Zurich, AAC(3)-IV, read-out: MIC AAC(3)-IV): > 32 mg/L
- Activity Enterob. AG302 AAC(3)-II AAC(6′)-I rmtC [20]: 4
- Activity E. coli AG103 armA [21]: 0.5
- MIC [22]: 1 to 2 mg/L
- susceptibility to the APH(3′, 5″) resistance determinant [23]: susceptible
- Activity E. coli pH426 rmtC [24]: 2
- Activity E. coli pH425 rmtB [25]: 4
- Activity E. coli AG153 AAC(3)-II APH(3′)-II rmtB [26]: 4
